Laboratory results from patent US20230031406A1, “COMPOUNDS AND COMPOSITIONS FOR TREATING CONDITIONS ASSOCIATED WITH NLRP ACTIVITY” (Novartis AG, priority 2018, published 2023).
Where two headings read alike, the source gives them in different places. One block for each compound: values may come before it.

Tested on: PMA-differentiated THP-1 cells
Assay: IL-1β production in PMA-differentiated THP-1 cells stimulated with gramicidin (hTHP-1 assay containing 2% fetal bovine serum; Procedures 1 and 2)
Format: cell-based, human
Conditions: 2% fetal bovine serum
Summary of the method: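 IL-1β release from PMA-differentiated THP-1 macrophage-like cells was triggered by 5 μM gramicidin for 2 h after 1 h compound exposure, then measured by HTRF.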

[1] = Homo sapiens, THP-1, Table B1, class symbols, read-out: Average IC50 of compounds in hTHP-1 assay: hTHP-1 IC50
[2] = Homo sapiens, THP-1, Table B3, hTHP-1 assay, numeric values, read-out: IC50
[3] = Homo sapiens, THP-1, Table B3, hTHP-1 assay, class symbols, read-out: IC50
[4] = Table B2, numeric bounds, read-out: hTHP-1 IC50
[5] = Table B3, hTHP-1 assay, class symbols, read-out: IC50
[6] = Table B2, class symbols, read-out: hTHP-1 IC50
[7] = Homo sapiens, THP-1, Table B2, class symbols, read-out: hTHP-1 IC50
[8] = Table B4, class symbols, read-out: hTHP-1 IC50

SMILES: CC1CCc2c1nc1c(c2NC(=O)N=S(N)(=O)c2ccn(C(C)C)n2)CCC1 (stereo not shown) [Compound 129, 1-isopropyl-N′-((3-methyl-1,2,3,5,6,7-hexahydrodicyclopenta[b,e]pyridin-8-yl)carbamoyl)-1H-pyrazole-3-sulfonimidamide]
IC50 [1]: 200 to 1000 nM

SMILES: CC(C)(O)c1csc(S(N)(=O)=NC(=O)Nc2cc(C(F)(F)F)nc3c2CCC3)c1 (single isomer, unassigned) [Example 668, (S) or (R)-4-(2-hydroxypropan-2-yl)-N′-((2-(trifluoromethyl)-6,7-dihydro-5H-cyclopenta[b]pyridin-4-yl)carbamoyl)thiophene-2-sulfonimidamide]
IC50 [2]: > 30000 nM

SMILES: C[C@@](O)(CO)c1cc(F)c([S@@](N)(=O)=NC(=O)Nc2c3c(nc4c2CCC42CC2)CCC3)s1 [Example 675, (S)-5-((R)-1,2-dihydroxypropan-2-yl)-3-fluoro-N′-((1′,5′,6′,7′-tetrahydro-2′H-spiro[cyclopropane-1,3′-dicyclopenta[b,e]pyridin]-8′-yl)carbamoyl)thiophene-2-sulfonimidamide]
IC50 [3]: 5000 to 30000 nM

SMILES: CC(C)(O)c1ncc(S(N)(=O)=NC(=O)Nc2c3c(nc4c2CCC4(C)C)CCC3)s1 (stereo not shown) [Compound 153, N′-((3,3-dimethyl-1,2,3,5,6,7-hexahydrodicyclopenta[b,e]pyridin-8-yl)carbamoyl)-2-(2-hydroxypropan-2-yl)thiazole-5-sulfonimidamide]
IC50 [1]: 40 to 200 nM

SMILES: CCc1c(CC(F)(F)F)nc2c(c1NC(=O)N=S(N)(=O)c1sc(C(C)(C)O)cc1F)CCC2 (single isomer, unassigned) [Example 640, (S) or (R)-N′-((3-ethyl-2-(2,2,2-trifluoroethyl)-6,7-dihydro-5H-cyclopenta[b]pyridin-4-yl)carbamoyl)-3-fluoro-5-(2-hydroxypropan-2-yl) thiophene-2-sulfonimidamide]
IC50 [5]: 5000 to 30000 nM

SMILES: CC1(C)CCc2c1nc1c(c2NC(=O)N=S(N)(=O)c2sc([C@](C)(O)CO)nc2CO)CCC1 (stereo partly drawn) [Example 600, 2-((R)-1,2-dihydroxypropan-2-yl)-N′-((3,3-dimethyl-1,2,3,5,6,7-hexahydrodicyclopenta[b,e]pyridin-8-yl)carbamoyl)-4-(hydroxymethyl)thiazole-5-sulfonimidamide]
IC50 [3]: 200 to 1000 nM

SMILES: CCn1cc(F)c(S(N)(=O)=NC(=O)Nc2c3c(nc(C4CC4)c2C2CC2)CCC3)n1 (stereo not shown) [Example 618, N′-((2,3-dicyclopropyl-6,7-dihydro-5H-cyclopenta[b]pyridin-4-yl)carbamoyl)-1-ethyl-4-fluoro-1H-pyrazole-3-sulfonimidamide]
IC50 [3]: 40 to 200 nM

SMILES: C[C@@H]1CCc2c1nc1c(c2NC(=O)N=[S@@](N)(=O)c2ccn(CF)n2)CCC1 [Example 573, (R)-1-(fluoromethyl)-N′—(((R)-3-methyl-1,2,3,5,6,7-hexahydrodicyclopenta[b,e]pyridin-8-yl)carbamoyl)-1H-pyrazole-3-sulfonimidamide]
IC50 [3]: 1000 to 5000 nM

SMILES: CCn1ccc(S(N)(=O)=NC(=O)Nc2c(C)c(C(F)(F)F)nc3c2CCC3)n1 (single isomer, unassigned) [Example 691, (R) or (S)-1-Ethyl-N′-((3-methyl-2-(trifluoromethyl)-6,7-dihydro-5H-cyclopenta[b]pyridin-4-yl)carbamoyl)-1H-pyrazole-3-sulfonimidamide]
IC50 [5]: 200 to 1000 nM

SMILES: CCn1cc(F)c(S(N)(=O)=NC(=O)Nc2c3c(nc(C(F)(F)F)c2-c2ccc(F)cc2)CCC3)n1 (single isomer, unassigned) [Example 787, (R) or (S)-1-ethyl-4-fluoro-N′-((3-(4-fluorophenyl)-2-(trifluoromethyl)-6,7-dihydro-5H-cyclopenta[b]pyridin-4-yl)carbamoyl)-1H-pyrazole-3-sulfonimidamide]
IC50 [8]: 8 to 40 nM

SMILES: CC(C)(O)c1cc(F)c(S(N)(=O)=NC(=O)Nc2cc(CC(F)(F)F)nc3c2CCC3)s1 (single isomer, unassigned) [Example 690, (S) or (R)-3-Fluoro-5-(2-hydroxypropan-2-yl)-N′-((2-(2,2,2-trifluoroethyl)-6,7-dihydro-5H-cyclopenta[b]pyridin-4-yl)carbamoyl)thiophene-2-sulfonimidamide]
IC50 [2]: > 30000 nM

SMILES: CC1(C)CCc2c1nc1c(c2NC(=O)N=S(N)(=O)c2cc(CO)n(CCO)n2)CCC1 (stereo not shown) [Example 626, N′-((3,3-dimethyl-1,2,3,5,6,7-hexahydrodicyclopenta[b,e]pyridin-8-yl)carbamoyl)-1-(2-hydroxyethyl)-5-(hydroxymethyl)-1H-pyrazole-3-sulfonimidamide]
IC50 [3]: 200 to 1000 nM

SMILES: CC1(C)CCc2c1nc1c(c2NC(=O)N=[S@@](N)(=O)c2cc([C@@](C)(O)CO)cs2)CCC1 [Example 653, (R)-4-((R)-1,2-dihydroxypropan-2-yl)-N′-((3,3-dimethyl-1,2,3,5,6,7-hexahydrodicyclopenta[b,e]pyridin-8-yl)carbamoyl) thiophene-2-sulfonimidamide]
IC50 [3]: 40 to 200 nM

SMILES: CC(C)(O)c1csc(S(N)(=O)=NC(=O)Nc2cc(C3CC3)nc3c2CCC3)c1 (stereo not shown) [Compound 176, N′-((2-cyclopropyl-6,7-dihydro-5H-cyclopenta[b]pyridin-4-yl)carbamoyl)-4-(2-hydroxypropan-2-yl)thiophene-2-sulfonimidamide]
IC50 [1]: 5000 to 30000 nM

SMILES: CCOC(=O)c1nc2c(c(NC(=O)N=S(N)(=O)c3cnc(C(C)(C)O)s3)c1C)CCC2 (stereo not shown) [Compound 706]
IC50 (Homo sapiens, THP-1, Table B2, numeric bounds, read-out: hTHP-1 IC50): > 30000 nM

SMILES: CCn1cc(F)c(S(N)(=O)=NC(=O)Nc2c3c(nc(C(F)(F)F)c2-c2ccccc2F)CCC3)n1 (single isomer, unassigned) [Example 779, (R) or (S)-1-ethyl-4-fluoro-N′-((3-(2-fluorophenyl)-2-(trifluoromethyl)-6,7-dihydro-5H-cyclopenta[b]pyridin-4-yl)carbamoyl)-1H-pyrazole-3-sulfonimidamide]
IC50 [8]: 8 to 40 nM

SMILES: CC(C)c1c(C2CC2)nc2c(c1NC(=O)N=S(N)(=O)c1cc(C(C)(C)O)cs1)CCC2 (stereo not shown) [Compound 667, N′-((2-cyclopropyl-3-isopropyl-6,7-dihydro-5H-cyclopenta[b]pyridin-4-yl)carbamoyl)-4-(2-hydroxypropan-2-yl)thiophene-2-sulfonimidamide]
IC50 [7]: 200 to 1000 nM

The next lines start with the values.

IC50 (Table B1, class symbols, read-out: Average IC50 of compounds in hTHP-1 assay: hTHP-1 IC50): 200 to 1000 nM
SMILES: CC1CCc2c1nc1c(c2NC(=O)N=S(N)(=O)c2sc(C(C)(C)O)cc2F)CCC1 (single isomer, unassigned) [Compound 103bb, (R,S) or (R,R)-3-fluoro-5-(2-hydroxypropan-2-yl)-N′-((3-methyl-1,2,3,5,6,7-hexahydrodicyclo-penta[b,e]pyridin-8-yl)carbamoyl)thiophene-2-sulfonimidamide]

IC50 [4]: > 30000 nM
SMILES: CC1CCc2c1nc1c(c2NC(=O)N=S(N)(=O)c2cnn(C(C)C)c2)CCC1 (single isomer, unassigned) [Compound 171d, (S, S) and (S, R) or (R, S) and (R, R)-1-Isopropyl-N′-((3-methyl-1,2,3,5,6,7-hexahydrodicyclopenta [b,e]pyridin-8-yl)carbamoyl)-1H-pyrazole-4-sulfonimidamide]

IC50 [4]: > 30000 nM
SMILES: CCC1CCc2c1nc1c(c2NC(=O)N=S(N)(=O)c2cnc(C(C)(C)O)s2)CCC1 (single isomer, unassigned) [Compound 662a, (S, S) or (S, R) or (R, S) or (R, R)-N′-((3-Ethyl-1,2,3,5,6,7-hexaliydrodicyclopenta [b,e]pyridin-8-yl)caibamoyl)-2-(2-hydroxypropan-2-yl)thiazole-5-sulfonimidamide]

IC50 [6]: 5000 to 30000 nM
SMILES: Cc1c(C(F)(F)F)nc2c(c1NC(=O)N=S(N)(=O)c1cnc(C(C)(O)CO)s1)CCC2 (single isomer, unassigned) [Compound 605e, (R, S) or (S, S)-2-(1,2-Dihydroxypropan-2-yl)-N′-((3-methyl-2-(trifluoromethyl)-6,7-dihydro-5H-cyclopenta[b]pyridin-4-yl)carbamoyl) thiazole-5-sulfonimidamide]

IC50 [7]: 5000 to 30000 nM
SMILES: Cc1c(C(F)(F)F)nc2c(c1NC(=O)N=[S@](N)(=O)c1ccn(C)n1)CCC2 (single isomer, unassigned) [Compound 730a]

IC50 [6]: 40 to 200 nM
SMILES: Cc1c(C(C)C)nc2c(c1NC(=O)N=S(N)(=O)c1cnc(C(C)(C)O)s1)CCC2 (single isomer, unassigned) [Compound 650a, (R) or (S)-2-(2-Hydroxypropan-2-yl)-N′-((2-isopropyl-3-methyl-6,7-dihydro-5H-cyclopenta[b]pyridin-4-yl)carbamoyl)thiazole-5-sulfonimidamide]

IC50 [6]: 200 to 1000 nM
SMILES: CCc1cc(F)c(S(N)(=O)=NC(=O)Nc2c3c(nc4c2CC[C@H]4C)CCC3)s1 (single isomer, unassigned) [Compound 720a, (R) or (S)-5-Ethyl-3-fluoro-N′-(((R)-3-methyl-1,2,3,5,6,7-hexahydrodicyclopenta[b, e]pyridin-8-yl)carbamoyl)thiophene-2-sulfonimidamide]

IC50 [7]: 1000 to 5000 nM
SMILES: Cc1c(C2CC2)nc2c(c1NC(=O)N=S(N)(=O)c1ccn(C(F)F)n1)CCC2 (single isomer, unassigned) [Compound 676b, (R) or (S)-N′-((2-cyclopropyl-3-methyl-6,7-dihydro-5H-cyclopenta[b]pyridin-4-yl)carbamoyl)-1-(difluoromethyl)-1H-pyrazole-3-sulfonimidamide]
